{"source": "ChEMBL document CHEMBL1201862", "about": "“PubChem BioAssay data set” (2004)", "assay_in_all_cases": "growth of human tumour cells (NCI), 48 h", "key": {"[1]": {"system": "NCI-H460"}, "[2]": {"system": "EKVX"}, "[3]": {"system": "UO-31"}, "[4]": {"system": "RXF 393"}, "[5]": {"system": "SK-OV-3"}, "[6]": {"system": "UACC-257"}, "[7]": {"system": "U-251"}, "[8]": {"system": "HT-29"}, "[9]": {"system": "NCI-H226"}, "[10]": {"system": "OVCAR-5"}, "[11]": {"system": "RXF 631"}, "[12]": {"system": "HOP-92"}, "[13]": {"system": "CCRF-CEM"}, "[14]": {"system": "SNB-78"}, "[15]": {"system": "HOP-62"}, "[16]": {"system": "HCT-116"}, "[17]": {"system": "SK-MEL-28"}, "[18]": {"system": "KM12"}, "[19]": {"system": "MOLT-4"}, "[20]": {"system": "SNB-19"}, "[21]": {"system": "SF-295"}, "[22]": {"system": "NCI-H522"}, "[23]": {"system": "IGROV-1"}, "[24]": {"system": "NCI-H23"}, "[25]": {"system": "OVCAR-8"}, "[26]": {"system": "SR"}, "[27]": {"system": "HL-60"}, "[28]": {"system": "A498"}, "[29]": {"system": "DMS-273"}, "[30]": {"system": "M14"}, "[31]": {"system": "ACHN"}, "[32]": {"system": "TK-10"}, "[33]": {"system": "A549"}, "[34]": {"system": "M19-MEL"}, "[35]": {"system": "LXFL 529"}, "[36]": {"system": "SK-MEL-2"}, "[37]": {"system": "SF-268"}, "[38]": {"system": "K562"}, "[39]": {"system": "DLD-1"}, "[40]": {"system": "UACC-62"}, "[41]": {"system": "COLO 205"}, "[42]": {"system": "CAKI-1"}, "[43]": {"system": "HCT-15"}, "[44]": {"system": "SNB-75"}, "[45]": {"system": "OVCAR-4"}, "[46]": {"system": "SK-MEL-5"}, "[47]": {"system": "DMS-114"}, "[48]": {"system": "SW-620"}, "[49]": {"system": "RPMI-8226"}, "[50]": {"system": "HCC 2998"}, "[51]": {"system": "786-0"}, "[52]": {"system": "LOX IMVI"}, "[53]": {"system": "Malme-3M"}, "[54]": {"system": "KM-20L2"}, "[55]": {"system": "SN12C"}, "[56]": {"system": "OVCAR-3"}, "[57]": {"system": "SF-539"}}, "note": "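96-well plates; 48 h exposure; 5 concentrations. Endpoints by linear interpolation between flanking doses. Not reached: highest tested concentration assigned. At the GI50, growth is halved.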 The source made the active and inactive calls. Rule as the data show it: active = GI50 up to about 1.1 µM and inactive = higher."}
{"smiles": "CCCC(=O)OCC1OC2OC(C)(C)OC2C2OC(C)(C)OC12", "note": "(stereo not given)", "values": [{"measurement": "GI50", "setting": "[1]", "value": "> 100 µM (inactive)"}, {"measurement": "GI50", "setting": "[2]", "value": "> 100 µM (inactive)"}, {"measurement": "GI50", "setting": "[3]", "value": "> 100 µM (inactive)"}, {"measurement": "GI50", "setting": "[4]", "value": "> 100 µM (inactive)"}, {"measurement": "GI50", "setting": "[5]", "value": "> 100 µM (inactive)"}, {"measurement": "GI50", "setting": "[6]", "value": "> 100 µM (inactive)"}, {"measurement": "GI50", "setting": "[7]", "value": "> 100 µM (inactive)"}, {"measurement": "GI50", "setting": "[8]", "value": "> 100 µM (inactive)"}, {"measurement": "GI50", "setting": "[9]", "value": "19 µM (inactive)"}, {"measurement": "GI50", "setting": "[10]", "value": "> 100 µM (inactive)"}, {"measurement": "GI50", "setting": "[11]", "value": "> 100 µM (inactive)"}, {"measurement": "GI50", "setting": "[12]", "value": "> 100 µM (inactive)"}, {"measurement": "GI50", "setting": "[13]", "value": "> 100 µM (inactive)"}, {"measurement": "GI50", "setting": "[14]", "value": "> 100 µM (inactive)"}, {"measurement": "GI50", "setting": "[15]", "value": "> 100 µM (inactive)"}, {"measurement": "GI50", "setting": "[16]", "value": "> 100 µM (inactive)"}, {"measurement": "GI50", "setting": "[17]", "value": "> 100 µM (inactive)"}, {"measurement": "GI50", "setting": "[18]", "value": "> 100 µM (inactive)"}, {"measurement": "GI50", "setting": "[19]", "value": "> 100 µM (inactive)"}, {"measurement": "GI50", "setting": "[20]", "value": "> 100 µM (inactive)"}, {"measurement": "GI50", "setting": "[21]", "value": "> 100 µM (inactive)"}, {"measurement": "GI50", "setting": "[22]", "value": "> 100 µM (inactive)"}, {"measurement": "GI50", "setting": "[23]", "value": "> 100 µM (inactive)"}, {"measurement": "GI50", "setting": "[24]", "value": "> 100 µM (inactive)"}, {"measurement": "GI50", "setting": "[25]", "value": "> 100 µM (inactive)"}, {"measurement": "GI50", "setting": "[26]", "value": "> 100 µM (inactive)"}, {"measurement": "GI50", "setting": "[27]", "value": "> 100 µM (inactive)"}, {"measurement": "GI50", "setting": "[28]", "value": "> 100 µM (inactive)"}, {"measurement": "GI50", "setting": "[29]", "value": "> 100 µM (inactive)"}, {"measurement": "GI50", "setting": "[30]", "value": "> 100 µM (inactive)"}, {"measurement": "GI50", "setting": "[31]", "value": "> 100 µM (inactive)"}, {"measurement": "GI50", "setting": "[32]", "value": "23.6 µM (inactive)"}, {"measurement": "GI50", "setting": "[33]", "value": "> 100 µM (inactive)"}, {"measurement": "GI50", "setting": "[34]", "value": "> 100 µM (inactive)"}]}
{"smiles": "N#Cc1cc([N+](=O)[O-])ccc1NC(=O)C(=O)C(C(=O)c1ccc2ccccc2c1)C1OCc2ccccc21", "note": "(stereo not given)", "values": [{"measurement": "GI50", "setting": "[35]", "value": "4.41 µM (inactive)"}, {"measurement": "GI50", "setting": "[1]", "value": "4.38 µM (inactive)"}, {"measurement": "GI50", "setting": "[36]", "value": "10.9 µM (inactive)"}, {"measurement": "GI50", "setting": "[2]", "value": "16.4 µM (inactive)"}, {"measurement": "GI50", "setting": "[37]", "value": "4.11 µM (inactive)"}, {"measurement": "GI50", "setting": "[3]", "value": "12.8 µM (inactive)"}, {"measurement": "GI50", "setting": "[38]", "value": "6.25 µM (inactive)"}, {"measurement": "GI50", "setting": "[4]", "value": "3.73 µM (inactive)"}, {"measurement": "GI50", "setting": "[39]", "value": "11.1 µM (inactive)"}, {"measurement": "GI50", "setting": "[5]", "value": "24.8 µM (inactive)"}, {"measurement": "GI50", "setting": "[6]", "value": "9.33 µM (inactive)"}, {"measurement": "GI50", "setting": "[7]", "value": "4 µM (inactive)"}, {"measurement": "GI50", "setting": "[8]", "value": "12.9 µM (inactive)"}, {"measurement": "GI50", "setting": "[40]", "value": "7.46 µM (inactive)"}, {"measurement": "GI50", "setting": "[41]", "value": "9.4 µM (inactive)"}, {"measurement": "GI50", "setting": "[42]", "value": "9.4 µM (inactive)"}, {"measurement": "GI50", "setting": "[9]", "value": "1.68 µM (inactive)"}, {"measurement": "GI50", "setting": "[10]", "value": "14.2 µM (inactive)"}, {"measurement": "GI50", "setting": "[11]", "value": "11.3 µM (inactive)"}, {"measurement": "GI50", "setting": "[12]", "value": "7.01 µM (inactive)"}, {"measurement": "GI50", "setting": "[43]", "value": 7.8, "unit": "µM"}, {"measurement": "GI50", "setting": "[44]", "value": "4.23 µM (inactive)"}, {"measurement": "GI50", "setting": "[45]", "value": "> 25.5 µM (inactive)"}, {"measurement": "GI50", "setting": "[13]", "value": "3.92 µM (inactive)"}, {"measurement": "GI50", "setting": "[14]", "value": "3.93 µM (inactive)"}, {"measurement": "GI50", "setting": "[15]", "value": "6.65 µM (inactive)"}, {"measurement": "GI50", "setting": "[16]", "value": "5.01 µM (inactive)"}, {"measurement": "GI50", "setting": "[17]", "value": "4.18 µM (inactive)"}, {"measurement": "GI50", "setting": "[46]", "value": "9.06 µM (inactive)"}, {"measurement": "GI50", "setting": "[18]", "value": "15.4 µM (inactive)"}, {"measurement": "GI50", "setting": "[19]", "value": "2.18 µM (inactive)"}, {"measurement": "GI50", "setting": "[20]", "value": "6.9 µM (inactive)"}, {"measurement": "GI50", "setting": "[21]", "value": "3.15 µM (inactive)"}, {"measurement": "GI50", "setting": "[22]", "value": "7.29 µM (inactive)"}, {"measurement": "GI50", "setting": "[47]", "value": "8.07 µM (inactive)"}, {"measurement": "GI50", "setting": "[48]", "value": "6.27 µM (inactive)"}, {"measurement": "GI50", "setting": "[23]", "value": "17.6 µM (inactive)"}, {"measurement": "GI50", "setting": "[24]", "value": "4.5 µM (inactive)"}, {"measurement": "GI50", "setting": "[25]", "value": "5.43 µM (inactive)"}, {"measurement": "GI50", "setting": "[26]", "value": "2.88 µM (inactive)"}, {"measurement": "GI50", "setting": "[49]", "value": "5.2 µM (inactive)"}, {"measurement": "GI50", "setting": "[27]", "value": "12.2 µM (inactive)"}, {"measurement": "GI50", "setting": "[50]", "value": "10.3 µM (inactive)"}, {"measurement": "GI50", "setting": "[28]", "value": "5.56 µM (inactive)"}, {"measurement": "GI50", "setting": "[30]", "value": "15.1 µM (inactive)"}, {"measurement": "GI50", "setting": "[31]", "value": "14.1 µM (inactive)"}, {"measurement": "GI50", "setting": "[32]", "value": "22.3 µM (inactive)"}, {"measurement": "GI50", "setting": "[33]", "value": "10.7 µM (inactive)"}, {"measurement": "GI50", "setting": "[51]", "value": "6.28 µM (inactive)"}, {"measurement": "GI50", "setting": "[52]", "value": "7.19 µM (inactive)"}, {"measurement": "GI50", "setting": "[53]", "value": "8.41 µM (inactive)"}, {"measurement": "GI50", "setting": "[54]", "value": "20.7 µM (inactive)"}, {"measurement": "GI50", "setting": "[55]", "value": "13.7 µM (inactive)"}, {"measurement": "GI50", "setting": "[34]", "value": "11.8 µM (inactive)"}, {"measurement": "GI50", "setting": "[56]", "value": "3.06 µM (inactive)"}, {"measurement": "GI50", "setting": "[57]", "value": "1.82 µM (inactive)"}]}
